Read-outs that look alike come from different tables or passages of the source.

For the test, the target named is T1, human GR (Homo sapiens, UniProt P04150).
T1 sequence (P04150 1-777): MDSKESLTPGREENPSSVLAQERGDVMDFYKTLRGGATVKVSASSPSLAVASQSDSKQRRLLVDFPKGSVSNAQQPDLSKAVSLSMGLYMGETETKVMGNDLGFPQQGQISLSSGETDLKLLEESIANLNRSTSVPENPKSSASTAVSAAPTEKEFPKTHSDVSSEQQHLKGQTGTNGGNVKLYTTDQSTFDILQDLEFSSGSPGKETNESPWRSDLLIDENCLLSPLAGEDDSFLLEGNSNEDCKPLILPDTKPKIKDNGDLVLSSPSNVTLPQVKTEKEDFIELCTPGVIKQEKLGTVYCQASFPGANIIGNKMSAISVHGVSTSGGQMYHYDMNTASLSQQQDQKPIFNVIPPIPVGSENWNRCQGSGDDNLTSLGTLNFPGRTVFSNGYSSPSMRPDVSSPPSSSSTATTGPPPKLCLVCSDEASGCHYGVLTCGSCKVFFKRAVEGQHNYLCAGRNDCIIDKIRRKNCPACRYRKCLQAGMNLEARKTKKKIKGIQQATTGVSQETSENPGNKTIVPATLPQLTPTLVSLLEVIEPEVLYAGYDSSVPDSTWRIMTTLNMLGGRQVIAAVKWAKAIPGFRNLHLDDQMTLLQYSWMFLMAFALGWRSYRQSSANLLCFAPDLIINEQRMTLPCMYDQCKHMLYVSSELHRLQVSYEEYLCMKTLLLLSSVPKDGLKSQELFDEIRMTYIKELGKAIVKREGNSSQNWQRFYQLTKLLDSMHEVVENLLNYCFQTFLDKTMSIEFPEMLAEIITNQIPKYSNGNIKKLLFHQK
In words: Transrepression Assay (GITAR), TNFα-β-lactamase reporter in U937 cells. Format: cell-based. Details: U937 cells contain an endogenous glucocorticoid receptor (GR); endogenous in cells; host or cells: U937 cells stably transfected with the TNF-alpha promoter/beta-lactamase reporter. The conditions noted are these: for GITAR > GRAMM % SEP: GITAR Emax minus GRAMMER Emax; for EC50: U937 cells, inflection point, read-out: Transrepression U937 Cells GITAR IP. The method, boiled down:
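U937 cells stably carrying a TNF-α promoter–β-lactamase reporter, with endogenous GR, are preincubated with compound 30–45 min at 37 °C, then stimulated with PMA (5 ng/ml final) and LPS (100 ng/ml final) overnight (~18 hr). β-Lactamase is read with CCF2-AM substrate; repression by 100 nM dexamethasone defines 100%.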

The mark [1] stands for this setting: U-937, U937 cells, maximum activity, read-out: Transrepression U937 Cells GITAR Emax.
[2] abbreviates: U-937, activity repressed by 100 nM dexamethasone alone set as 100%, read-out: maximal activity in the transrepression (GITAR) assay.

For `C[C@]12Cc3cnn(-c4ccc(F)cc4)c3C=C1CC[C@@H]2CN(CC(O)C(F)(F)F)S(=O)(=O)Cc1cccnc1` (stereo partly drawn) [Example 149, N-{[(4αR,5S)-1-(4-fluorophenyl)-4α-methyl-1,4,4α,5,6,7-hexahydrocyclopenta[f]indazol-5-yl]methyl}-1-pyridin-3-yl-N-(3,3,3-trifluoro-2-hydroxypropyl)methanesulfonamide], the “GITAR > GRAMM % SEP” value is 44.7% and the EC50 turned out to be 250 nM. The Emax under setting [1] is 77.1%. Besides, under setting [2], the Emax was over 5%.

With `Cn1cc(S(=O)(=O)N(CCc2ccccn2)C[C@H]2CCC3=Cc4c(cnn4-c4ccc(F)cc4)C[C@@]32C)c(C(F)(F)F)n1` [Example 150, N-{[(4αR,5S)-1-(4-fluorophenyl)-4α-methyl-1,4,4α,5,6,7-hexahydrocyclopenta[f]indazol-5-yl]methyl}-1-methyl-N-(2-pyridin-2-ylethyl)-3-(trifluoromethyl)-1H-pyrazole-4-sulfonamide], the “GITAR > GRAMM % SEP” value is 33.7% and the EC50 worked out at 376 nM. Under setting [1], the Emax is 79.3%. In addition, the Emax under setting [2] is over 5%.

In the case of `CCCS(=O)(=O)N(CCc1ccccn1)C[C@H]1CCC2=Cc3c(cnn3-c3ccc(F)cc3)C[C@@]21C` [Example 151, N-{[(4αR,5S)-1-(4-fluorophenyl)-4α-methyl-1,4,4α,5,6,7-hexahydrocyclopenta[f]indazol-5-yl]methyl}-N-(2-pyridin-2-ylethyl)propane-1-sulfonamide], the “GITAR > GRAMM % SEP” value was 7.2% and the EC50 was determined as 551 nM. Under setting [1], the Emax is 83.3%. In addition, under setting [2], the Emax is over 5%.

As for `C[C@]12Cc3cnn(-c4ccc(F)cc4)c3C=C1CC[C@@H]2CN(CCc1ccccn1)S(=O)(=O)CCN1C(=O)c2ccccc2C1=O` [Example 152, 2-(1,3-dioxo-1,3-dihydro-2H-isoindol-2-yl)-N-{[(4αR,5S)-1-(4-fluorophenyl)-4α-methyl-1,4,4α,5,6,7-hexahydrocyclopenta[f]indazol-5-yl]methyl}-N-(2-pyridin-2-ylethyl)ethanesulfonamide], the “GITAR > GRAMM % SEP” value was 21.0% and the EC50 was determined as 1030 nM. The Emax under setting [1] came to 23%. In addition, the Emax under setting [2] was over 5%.

As for `C[C@]12Cc3cnn(-c4ccc(F)cc4)c3C=C1CC[C@@H]2CN(CCc1ccccn1)S(=O)(=O)Cc1ccccc1C(F)(F)F` [Example 153, N-{[(4αR,5S)-1-(4-fluorophenyl)-4α-methyl-1,4,4α,5,6,7-hexahydrocyclopenta[f]indazol-5-yl]methyl}-N-(2-pyridin-2-ylethyl)-1-[2-(trifluoromethyl)phenyl]methanesulfonamide], the “GITAR > GRAMM % SEP” value worked out at 37.2% and the EC50 turned out to be 263 nM. In addition, the Emax under setting [1] turned out to be 52.4%. The Emax under setting [2] was over 5%.

On to `C[C@]12Cc3cnn(-c4ccc(F)cc4)c3C=C1CC[C@@H]2CN(CC(O)C(F)F)S(=O)(=O)Cc1cccnc1` (stereo partly drawn) [Example 154, N-(3,3-difluoro-2-hydroxypropyl)-N-{[(4αR,5S)-1-(4-fluorophenyl)-4α-methyl-1,4,4α,5,6,7-hexahydrocyclopenta[f]indazol-5-yl]methyl}-1-pyridin-3-ylmethanesulfonamide], for which the “GITAR > GRAMM % SEP” value was 48.7% and the EC50 is 616 nM. For the same molecule, under setting [1], the Emax was 66.5%. Besides, the Emax under setting [2] was over 5%.

For `CCCS(=O)(=O)N(CC(O)C(F)F)C[C@H]1CCC2=Cc3c(cnn3-c3ccc(F)cc3)C[C@@]21C` (stereo partly drawn) [Example 155, N-(3,3-difluoro-2-hydroxypropyl)-N-{[(4αR,5S)-1-(4-fluorophenyl)-4α-methyl-1,4,4α,5,6,7-hexahydrocyclopenta[f]indazol-5-yl]methyl}propane-1-sulfonamide], the “GITAR > GRAMM % SEP” value amounted to 32.2% and the EC50 amounted to 1090 nM. Moreover, the Emax under setting [1] turned out to be 61.3%. Moreover, the Emax under setting [2] was over 5%.

Consider `Cn1cc(S(=O)(=O)N(CC(O)C(F)F)C[C@H]2CCC3=Cc4c(cnn4-c4ccc(F)cc4)C[C@@]32C)c(C(F)(F)F)n1` (stereo partly drawn) [Example 156, N-(3,3-difluoro-2-hydroxypropyl)-N-{[(4αR,5S)-1-(4-fluorophenyl)-4α-methyl-1,4,4α,5,6,7-hexahydrocyclopenta[f]indazol-5-yl]methyl}-1-methyl-3-(trifluoromethyl)-1H-pyrazole-4-sulfonamide], for which the “GITAR > GRAMM % SEP” value is 15.0% and the EC50 came out at 229 nM. Moreover, the Emax under setting [1] stood at 19.5%. In addition, the Emax under setting [2] is over 5%.

For the molecule `Cn1cc(S(=O)(=O)N(CC(O)c2ccccn2)C[C@H]2CCC3=Cc4c(cnn4-c4ccc(F)cc4)C[C@@]32C)c(C(F)(F)F)n1` (stereo partly drawn) [Example 157, N-{[(4αR,5S)-1-(4-fluorophenyl)-4α-methyl-1,4,4α,5,6,7-hexahydrocyclopenta[f]indazol-5-yl]methyl}-N-(2-hydroxy-2-pyridin-2-ylethyl)-1-methyl-3-(trifluoromethyl)-1H-pyrazole-4-sulfonamide], the “GITAR > GRAMM % SEP” value is given as 30.0% and the EC50 is 29.1 nM. In addition, the Emax under setting [1] came out at 93.6%. For the same molecule, under setting [2], the Emax was over 5%.

In the case of `C[C@]12Cc3cnn(-c4ccc(F)cc4)c3C=C1CC[C@@H]2CN(CC=O)S(=O)(=O)c1ccccc1F` [Example 158, 2-fluoro-N-{[(4αR,5S)-1-(4-fluorophenyl)-4α-methyl-1,4,4α,5,6,7-hexahydrocyclopenta[f]indazol-5-yl]methyl}-N-(2-oxoethyl)benzenesulfonamide], the “GITAR > GRAMM % SEP” value was 41.6% and the EC50 was 564 nM. Moreover, the Emax under setting [1] came out at 77.8%. Besides, the Emax under setting [2] is over 5%.

For the molecule `COC(=O)c1ccccc1CCN(C[C@H]1CCC2=Cc3c(cnn3-c3ccc(F)cc3)C[C@@]21C)S(=O)(=O)CC(F)(F)F` [Example 159, methyl 2-(2-{{[(4αR,5S)-1-(4-fluorophenyl)-4α-methyl-1,4,4α,5,6,7-hexahydrocyclopenta[f]indazol-5-yl]methyl}[(2,2,2-trifluoroethyl)sulfonyl]amino}ethyl)benzoate], the “GITAR > GRAMM % SEP” value is 5.2% and the EC50 is 551 nM. Under setting [1], the Emax is 34.1%. Also, the Emax under setting [2] was over 5%.

For the molecule `COC(=O)c1cc(Cl)ccc1CCN(C[C@H]1CCC2=Cc3c(cnn3-c3ccc(F)cc3)C[C@@]21C)S(=O)(=O)CC(F)(F)F` [Example 160, methyl 5-chloro-2-(2-{{[(4αR,5S)-1-(4-fluorophenyl)-4α-methyl-1,4,4α,5,6,7-hexahydrocyclopenta[f]indazol-5-yl]methyl}[(2,2,2-trifluoroethyl)sulfonyl]amino}ethyl)benzoate], the “GITAR > GRAMM % SEP” value amounted to 10.8% and the EC50 was found to be 508 nM. Besides, the Emax under setting [1] was 15.1%. Also, the Emax under setting [2] is over 5%.

Regarding `Cc1noc(C)c1S(=O)(=O)NC[C@H]1CCC2=Cc3c(cnn3-c3ccc(F)cc3)C[C@@]21C` [Example 161, N-{[(4αR,5S)-1-(4-fluorophenyl)-4α-methyl-1,4,4α,5,6,7-hexahydrocyclopenta[f]indazol-5-yl]methyl}-3,5-dimethylisoxazole-4-sulfonamide], the “GITAR > GRAMM % SEP” value is 26.7% and the EC50 turned out to be 930 nM. Moreover, the Emax under setting [1] amounted to 45%. The Emax under setting [2] is over 5%.

Values taken from patent US8299048B2, “Hexahydrocyclopentyl[f]indazole sulfonamides and derivatives thereof as selective glucocorticoid receptor modulators” (Merck Sharp & Dohme Corp., priority 2008, dated 2012).
